Legend:
IKZF2 = IKZF2 (Homo sapiens (Human), UniProt Q96SW2+Q9UKS7); assay: In vitro IKZF2 HiBit Assay (HEK293T Flp-in-HiBiT cells); format: cell-based; settings: HEK293T Flp-in-HiBiT cells, 6 hrs incubation; for DC50: read-out: IKZF2 HiBit DC50; for Dmax: HEK-293T, read-out: IKZF2 HiBit Dmax (%)
Experimental: In Vitro IKZF2 HiBit Assay
The HiBiT protein tagging system was applied to modified HEK293T Flp-in-HiBiT cells (polyclone) via a CRISPR/Cas9-mediated insertion of the HiBiT peptide tag (Promega™) to the N-terminus of the IKZF2 gene locus (Neon™ transfection system). Test and reference compounds are diluted from 1 mM at 3 folds for 11 doses. 25 nL of diluted compound is transfered to assay plates (Corning3570) using ECHO550, the final DMSO concentration @ 0.1%. The cells are seeded in 3000/25 μL/well to compound plates. It is then incubated for 6 hrs in TC incubator. The amount of Nano-Glo® HiBiT lytic reagent needed to perform the desired experiments is calculated. The Nano-Glo® HiBiT lytic reagent is brought to room temperature. The LgBiT protein is diluted to 1:100 and the Nano-Glo® HiBiT lytic substrate is diluted to 1:50 into an appropriate volume of room temperature Nano-Glo® HiBiT lytic buffer. 15 μL of the detection reagent (or without LgBiT) is dispensed to corresponding well according to the layout. The plate is then shaked for 10 mins at room temperature. After briefly centrifuge, the plate is read on Envision. At the indicated timepoints, the Nano-Glo® HiBiT lytic detection system (Promega™) was utilized for detecting bioluminescence of the HiBiT tag in treated cells: abundance of the tag is proportionate to the level of luminescence. Following normalization to DMSO, dose-response curves were plotted (GraphPad Prism) to determine the concentration points at which 50% of HiBiT-Helios degradation was achieved by each compound. The extent of degradation (range of luminescence) from the highest to lowest concentration points was calculated to determine the Dmax.
(§1) DC50, A: <1 nM; B: 1-10 nM; C: 10-100 nM; D: 100-1000 nM; E: 1000-10000 nM; F: >10,000 nM. Dmax, A: >80%; B: 60-80%; C: 40-60%; D: 20-40%; E: <20%.

IKZF1 = IKZF1 (Homo sapiens (Human), UniProt Q13422+Q96SW2); assay: In vitro IKZF1 HiBit Assay (HEK293T Flp-in-HiBiT-IKZF1 stable cell line); format: cell-based; settings: HEK293T Flp-in-HiBiT-IKZF1 stable cell line, 6 hrs incubation; for DC50: read-out: IKZF1 HiBit DC50; for Dmax: HEK-293T, read-out: IKZF1 HiBit Dmax (%)
Experimental: In Vitro IKZF1 HiBit Assay
The HiBiT protein tagging system was applied to modified Cells: modified HEK293T Flp-in-HiBiT-IKZF1 stable cell line (polyclone) via a CRISPR/Cas9-mediated insertion of the HiBiT peptide tag (Promega™) to the N-terminus of the […] gene locus (Neon™ transfection system).
25 nL of diluted compound is transferred to assay plates (Corning3571) using ECHO550, the final DMSO concentration @ 0.1%. The cells are seeded in 3000/25 μL/well to compound plates. The plates are incubated for 6 hrs in TC incubator. The amount of Nano-Glo® HiBiT lytic reagent needed to perform the desired experiments is calculated. The Nano-Glo® HiBiT lytic reagent is brought to room temperature. The LgBiT protein is diluted to 1:100 and the Nano-Glo® HiBiT lytic substrate is brought to 1:50 into an appropriate volume of room temperature Nano-Glo® HiBiT lytic buffer. 15 μL of the detection reagent (or without LgBiT) is dispensed to corresponding well according to the layout. The plate is shaked for 10 mins at room temperature. After briefly centrifuge, the plateis read on Envision. At the indicated timepoints, the Nano-Glo® HiBiT lytic detection system (Promega™) was utilized for detecting bioluminescence of the HiBiT tag in treated cells: abundance of the tag is proportionate to the level of luminescence. Following normalization to DMSO, dose-response curves were plotted (GraphPad Prism) to determine the concentration points at which 50% of HiBiT-Ikaros degradation was achieved by each compound. The extent of degradation (range of luminescence) from the highest to lowest concentration points was calculated to determine the Dmax.
as §1

CRBN/DDB1 = CRBN/DDB1 (Homo sapiens (Human), UniProt Q96SW2); assay: IC50 measurements for binding to CRBN/DDB1 (HTRF); settings: His tagged CRBN+DDB, Cy5-labeled Thalidomide probe, one hour
Experimental: In vitro Assay: IC50 Measurements for binding to CRBN/DDB1 (Table E1)
The binding potency was determined using HTRF assay technology (Perkin Elmer). Compounds were serially diluted in DMSO and 0.2 μL volume was transferred to white 384-well plate. The reaction was conducted in total volume of 20 μL with addition of 2 nM His tagged CRBN+DDB−DLS7+CXU4 (Wuxi, catalogue #RP210521GA) to compounds followed by addition of 60 nM Fluorescent probe Cy5-labeled Thalidomide (Tenova Pharma, catalogue #T52461), and 0.4 nM of MAb Anti-6HIS Tb cryptate Gold (Cisbio, catalogue #61HI2TLA in the assay buffer (50 mM HEPES pH 7.5, 1 mM TCEP, 0.01% Brij-35, 50 mM NaCl, and 0.1% BSA). After one hour incubation at room temperature, the HTRF signals were read on Envision reader (Perkin Elemer). Data was analyzed using XLfit using four parameters dose response curve to determine IC50s. A: IC50<0.1 μM; B: 0.1 μM<IC50<[…]; C: 0.5 μM<IC50<1 μM; D: 1 μM<IC50<5 μM; E: 5 μM<IC50<10 μM

CRBN/DDB1, sequence (Q96SW2 whole entry, species assumed): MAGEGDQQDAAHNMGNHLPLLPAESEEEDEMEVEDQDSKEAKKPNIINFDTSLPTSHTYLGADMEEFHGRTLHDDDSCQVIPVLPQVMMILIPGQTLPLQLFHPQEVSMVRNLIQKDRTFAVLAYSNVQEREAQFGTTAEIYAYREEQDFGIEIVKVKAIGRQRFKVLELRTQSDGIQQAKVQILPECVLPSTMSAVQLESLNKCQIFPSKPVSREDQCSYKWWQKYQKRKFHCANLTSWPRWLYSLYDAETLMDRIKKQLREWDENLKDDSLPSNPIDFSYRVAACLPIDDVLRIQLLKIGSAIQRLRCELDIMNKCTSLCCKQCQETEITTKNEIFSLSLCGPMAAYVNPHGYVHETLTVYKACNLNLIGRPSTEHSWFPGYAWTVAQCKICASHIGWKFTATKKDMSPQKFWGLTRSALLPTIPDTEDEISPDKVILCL
CRBN/DDB1, sequence (Q16531 whole entry partner, species assumed): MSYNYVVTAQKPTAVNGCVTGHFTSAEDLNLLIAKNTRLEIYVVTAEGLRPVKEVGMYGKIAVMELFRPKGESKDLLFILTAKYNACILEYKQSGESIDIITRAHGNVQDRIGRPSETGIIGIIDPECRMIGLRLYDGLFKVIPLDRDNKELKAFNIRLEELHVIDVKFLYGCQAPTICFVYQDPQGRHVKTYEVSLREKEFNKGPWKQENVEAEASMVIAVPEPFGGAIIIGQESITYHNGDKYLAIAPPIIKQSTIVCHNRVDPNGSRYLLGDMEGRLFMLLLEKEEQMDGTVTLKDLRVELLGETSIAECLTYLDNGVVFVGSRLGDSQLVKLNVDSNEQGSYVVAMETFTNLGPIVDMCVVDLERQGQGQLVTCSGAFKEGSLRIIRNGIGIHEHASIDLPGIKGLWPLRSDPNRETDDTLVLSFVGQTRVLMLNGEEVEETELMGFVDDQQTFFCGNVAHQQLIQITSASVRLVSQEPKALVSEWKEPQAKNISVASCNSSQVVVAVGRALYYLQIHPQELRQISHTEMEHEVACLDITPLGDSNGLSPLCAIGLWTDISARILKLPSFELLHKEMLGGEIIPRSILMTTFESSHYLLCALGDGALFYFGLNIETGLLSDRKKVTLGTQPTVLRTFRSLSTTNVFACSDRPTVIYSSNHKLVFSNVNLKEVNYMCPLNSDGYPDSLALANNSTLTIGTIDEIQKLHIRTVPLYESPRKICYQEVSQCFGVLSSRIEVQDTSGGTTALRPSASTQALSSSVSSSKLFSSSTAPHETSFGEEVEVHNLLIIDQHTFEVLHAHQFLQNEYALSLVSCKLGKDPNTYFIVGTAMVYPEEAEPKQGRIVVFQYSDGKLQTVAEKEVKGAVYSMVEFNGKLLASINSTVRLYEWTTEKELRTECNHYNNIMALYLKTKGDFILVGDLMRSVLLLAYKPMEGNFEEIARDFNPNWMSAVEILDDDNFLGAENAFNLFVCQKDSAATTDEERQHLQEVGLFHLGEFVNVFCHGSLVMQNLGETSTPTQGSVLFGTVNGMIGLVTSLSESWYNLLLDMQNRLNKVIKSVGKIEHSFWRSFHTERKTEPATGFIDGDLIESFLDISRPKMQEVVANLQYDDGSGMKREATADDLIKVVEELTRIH
IKZF2, sequence (Q9UKS7 whole entry): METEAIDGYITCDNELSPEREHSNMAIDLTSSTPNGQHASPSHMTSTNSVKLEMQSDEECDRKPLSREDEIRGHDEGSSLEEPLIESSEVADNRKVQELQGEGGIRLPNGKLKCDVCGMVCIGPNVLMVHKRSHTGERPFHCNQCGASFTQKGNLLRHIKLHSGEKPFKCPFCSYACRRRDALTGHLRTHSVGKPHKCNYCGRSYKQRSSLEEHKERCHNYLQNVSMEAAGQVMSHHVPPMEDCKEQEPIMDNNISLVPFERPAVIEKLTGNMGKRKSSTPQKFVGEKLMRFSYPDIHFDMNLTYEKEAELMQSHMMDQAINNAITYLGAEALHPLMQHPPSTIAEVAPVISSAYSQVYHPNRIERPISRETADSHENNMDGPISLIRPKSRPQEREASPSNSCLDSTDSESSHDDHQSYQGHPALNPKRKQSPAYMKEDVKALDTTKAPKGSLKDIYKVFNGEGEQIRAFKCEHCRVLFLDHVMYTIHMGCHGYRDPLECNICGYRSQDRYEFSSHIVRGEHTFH
IKZF2, sequence (Q96SW2 whole entry): as the sequence (Q96SW2 whole entry, species assumed) above
IKZF2, sequence (Q16531 2-1140 partner): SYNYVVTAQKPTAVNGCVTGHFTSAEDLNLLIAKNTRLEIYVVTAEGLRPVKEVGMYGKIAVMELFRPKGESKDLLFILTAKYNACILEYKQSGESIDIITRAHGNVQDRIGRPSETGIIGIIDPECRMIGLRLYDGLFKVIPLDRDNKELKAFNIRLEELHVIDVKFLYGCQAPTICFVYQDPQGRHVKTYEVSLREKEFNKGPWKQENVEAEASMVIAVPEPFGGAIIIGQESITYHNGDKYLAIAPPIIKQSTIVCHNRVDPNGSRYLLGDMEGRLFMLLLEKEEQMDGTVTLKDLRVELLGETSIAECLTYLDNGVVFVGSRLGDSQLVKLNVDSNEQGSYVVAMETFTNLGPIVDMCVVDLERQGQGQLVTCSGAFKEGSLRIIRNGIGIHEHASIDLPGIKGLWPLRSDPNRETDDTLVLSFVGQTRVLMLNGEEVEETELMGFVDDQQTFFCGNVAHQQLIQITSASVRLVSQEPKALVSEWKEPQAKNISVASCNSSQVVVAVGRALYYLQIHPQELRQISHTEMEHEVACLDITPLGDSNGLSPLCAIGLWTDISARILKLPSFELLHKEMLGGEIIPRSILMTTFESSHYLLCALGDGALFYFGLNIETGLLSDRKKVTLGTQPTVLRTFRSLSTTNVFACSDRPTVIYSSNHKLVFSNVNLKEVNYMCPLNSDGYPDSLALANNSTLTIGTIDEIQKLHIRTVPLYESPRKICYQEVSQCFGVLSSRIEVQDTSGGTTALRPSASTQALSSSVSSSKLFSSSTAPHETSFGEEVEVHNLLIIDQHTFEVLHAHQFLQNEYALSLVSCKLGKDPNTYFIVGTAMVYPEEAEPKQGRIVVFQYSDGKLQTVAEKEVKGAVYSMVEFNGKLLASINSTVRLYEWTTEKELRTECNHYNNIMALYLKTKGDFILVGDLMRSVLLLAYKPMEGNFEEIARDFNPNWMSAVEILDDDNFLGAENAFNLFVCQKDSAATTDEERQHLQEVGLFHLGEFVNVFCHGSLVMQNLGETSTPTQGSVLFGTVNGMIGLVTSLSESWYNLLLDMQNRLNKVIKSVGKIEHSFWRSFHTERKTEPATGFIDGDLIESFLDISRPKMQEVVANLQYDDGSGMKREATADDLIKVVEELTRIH
IKZF1, sequence (Q13422 whole entry): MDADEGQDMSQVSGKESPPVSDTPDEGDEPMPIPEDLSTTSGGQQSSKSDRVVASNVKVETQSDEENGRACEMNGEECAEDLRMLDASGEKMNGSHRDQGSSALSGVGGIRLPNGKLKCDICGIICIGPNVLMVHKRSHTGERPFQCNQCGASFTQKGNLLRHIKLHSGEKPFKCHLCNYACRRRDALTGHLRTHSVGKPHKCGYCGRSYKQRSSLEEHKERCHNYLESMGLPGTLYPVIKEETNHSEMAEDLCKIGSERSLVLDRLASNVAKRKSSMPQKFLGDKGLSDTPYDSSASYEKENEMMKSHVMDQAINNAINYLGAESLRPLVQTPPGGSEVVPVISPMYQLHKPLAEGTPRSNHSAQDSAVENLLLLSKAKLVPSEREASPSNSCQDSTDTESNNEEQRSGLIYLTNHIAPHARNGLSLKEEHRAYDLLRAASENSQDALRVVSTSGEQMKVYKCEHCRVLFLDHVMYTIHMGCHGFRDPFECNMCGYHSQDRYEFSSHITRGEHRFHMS
IKZF1, sequence (Q96SW2 whole entry): as the sequence (Q96SW2 whole entry, species assumed) above
IKZF1, sequence (Q16531 2-1140 partner): as the sequence (Q16531 2-1140 partner) above

Compound	DC50 (IKZF2)	Dmax (IKZF2)	DC50 (IKZF1)	Dmax (IKZF1)	IC50 (CRBN/DDB1)
O=C1CCC(N2Cc3cc(-c4cc(CN5CC(O)C5)c5ccn(C6COC6)c5n4)ccc3C2=O)C(=O)N1 (centres unmarked) [Example 160, 3-(5-(4-((3-hydroxyazetidin-1-yl)methyl)-1-(oxetan-3-yl)-1H-pyrrolo[2,3-b]pyridin-6-yl)-1-oxoisoindolin-2-yl) piperidine-2,6-dione]	10 to 100 nM	40 to 60%	> 10000 nM	< 20%	< 100 nM
O=C1CCC(N2Cc3cc(-c4cc(CN5CCC(CO)C5)c5ccn(C6CC6)c5n4)ccc3C2=O)C(=O)N1 (centres unmarked) [Example 155, 3-(5-(1-cyclopropyl-4-((3-(hydroxymethyl)pyrrolidin-1-yl)methyl)-1H-pyrrolo[2,3-b]pyridin-6-yl)-1-oxoisoindolin-2-yl) piperidine-2,6-dione]	1 to 10 nM	> 80%	10 to 100 nM	20 to 40%	100 to 500 nM
O=C1CCC(N2Cc3cc(-c4cc(CN5CCCC5)c5c(ccn5CCO)n4)ccc3C2=O)C(=O)N1 (centres unmarked) [Example 175, 3-(5-(1-(2-hydroxyethyl)-7-(pyrrolidin-1-ylmethyl)-1H-pyrrolo[3,2-b]pyridin-5-yl)-1-oxoisoindolin-2-yl) piperidine-2,6-dione]	10 to 100 nM	60 to 80%	> 10000 nM	< 20%	1000 to 5000 nM
O=C1CCC(N2Cc3cc(-c4cc(CN5CCC(O)CC5)c5ccn(C6CC6)c5n4)ccc3C2=O)C(=O)N1 (centres unmarked) [Example 159, 3-(5-(1-cyclopropyl-4-((4-hydroxypiperidin-1-yl)methyl)-1H-pyrrolo[2,3-b]pyridin-6-yl)-1-oxoisoindolin-2-yl) piperidine-2,6-dione]	1 to 10 nM	60 to 80%	10 to 100 nM	20 to 40%	100 to 500 nM
CC(C)n1ccc2c(CN3CCCC3)cc(-c3ccc4c(c3)CN(C3CCC(=O)NC3=O)C4=O)nc21 (centres unmarked) [Example 299, 3-(5-(1-isopropyl-4-(pyrrolidin-1-ylmethyl)-1H-pyrrolo[2,3-b]pyridin-6-yl)-1-oxoisoindolin-2-yl) piperidine-2,6-dione]	1 to 10 nM	60 to 80%	> 10000 nM	< 20%	500 to 1000 nM
O=C1CCC(N2Cc3cc(-c4cc(CN5CCCC5c5ccccc5)cc5nncn45)ccc3C2=O)C(=O)N1 (centres unmarked) [Example 50, 3-(1-oxo-5-(7-((2-phenylpyrrolidin-1-yl)methyl)-[1,2,4]triazolo[4,3-a]pyridin-5-yl)isoindolin-2-yl) piperidine-2,6-dione]					1000 to 5000 nM
O=C1CCC(N2Cc3cc(-c4cc(CN5CCCC5)c5c(n4)NC(=O)C5)ccc3C2=O)C(=O)N1 (centres unmarked) [Example 200, 3-(1-oxo-5-(2-oxo-4-(pyrrolidin-1-ylmethyl)-2,3-dihydro-1H-pyrrolo[2,3-b]pyridin-6-yl)isoindolin-2-yl) piperidine-2,6-dione]	100 to 1000 nM	60 to 80%	100 to 1000 nM	20 to 40%	100 to 500 nM
Cn1ccc2c(CN3CCC(C(F)(F)F)CC3)cc(-c3ccc4c(c3)CN(C3CCC(=O)NC3=O)C4=O)nc21 (centres unmarked) [Example 90, 3-(5-(1-methyl-4-((4-(trifluoromethyl)piperidin-1-yl)methyl)-1H-pyrrolo[2,3-b]pyridin-6-yl)-1-oxoisoindolin-2-yl) piperidine-2,6-dione]	1 to 10 nM	> 80%	10 to 100 nM	20 to 40%	100 to 500 nM
Cn1ccc2c(CN3CC4CCCC4C3)cc(-c3ccc4c(c3)CN(C3CCC(=O)NC3=O)C4=O)nc21 (centres unmarked) [Example 72, 3-(5-(4-((hexahydrocyclopenta[c]pyrrol-2 (1H)-yl)methyl)-1-methyl-1H-pyrrolo[2,3-b]pyridin-6-yl)-1-oxoisoindolin-2-yl) piperidine-2,6-dione]	< 1 nM	> 80%	> 10000 nM	40 to 60%	100 to 500 nM
COc1cc(-c2cc(CN3CCCC3)cc3cncn23)cc2c1C(=O)N(C1CCC(=O)NC1=O)C2 (centres unmarked) [Example 32, 3-(7-methoxy-1-oxo-5-(7-(pyrrolidin-1-ylmethyl)imidazo[1,5-a]pyridin-5-yl)isoindolin-2-yl) piperidine-2,6-dione]					100 to 500 nM
O=C1CCC(N2Cc3cc(-c4cc(CN5CCCC5)cc5cncn45)cc(F)c3C2=O)C(=O)N1 (centres unmarked) [Example 28, 3-(7-fluoro-1-oxo-5-(7-(pyrrolidin-1-ylmethyl)imidazo[1,5-a]pyridin-5-yl)isoindolin-2-yl) piperidine-2,6-dione]					500 to 1000 nM
Cn1cnc(-n2ccc3c(CN4CCCC4)cc(-c4ccc5c(c4)CN([C@H]4CCC(=O)NC4=O)C5=O)nc32)c1 [Example 263, (S)-3-(5-(1-(1-methyl-1H-imidazol-4-yl)-4-(pyrrolidin-1-ylmethyl)-1H-pyrrolo[2,3-b]pyridin-6-yl)-1-oxoisoindolin-2-yl) piperidine-2,6-dione]	1 to 10 nM	40 to 60%	> 10000 nM	< 20%	
Cc1cc(-c2ccc3c(c2)CN(C2CCC(=O)NC2=O)C3=O)nc2c1nc(CN1CCCC1)n2C1COC1 (centres unmarked) [Example 259, 3-(5-(7-methyl-3-(oxetan-3-yl)-2-(pyrrolidin-1-ylmethyl)-3H-imidazo[4,5-b]pyridin-5-yl)-1-oxoisoindolin-2-yl) piperidine-2,6-dione]	> 10000 nM	< 20%	> 10000 nM	< 20%	
O=C1CCC(N2Cc3cc(-c4cc(CN5CCCC5)cc5cncn45)c(F)cc3C2=O)C(=O)N1 (centres unmarked) [Example 29, 3-(6-fluoro-1-oxo-5-(7-(pyrrolidin-1-ylmethyl)imidazo[1,5-a]pyridin-5-yl)isoindolin-2-yl) piperidine-2,6-dione]					1000 to 5000 nM
CC(C)CC1CN(Cc2cc(-c3ccc4c(c3)CN(C3CCC(=O)NC3=O)C4=O)nc3[nH]ccc23)CC1O (centres unmarked) [Example 138, 3-(5-(4-((3-hydroxy-4-isobutylpyrrolidin-1-yl)methyl)-1H-pyrrolo[2,3-b]pyridin-6-yl)-1-oxoisoindolin-2-yl) piperidine-2,6-dione]	1 to 10 nM	> 80%	100 to 1000 nM	20 to 40%	
